Test results: patent publication US9850283B2, “Macrocyclic inhibitors of the PD-1/PD-L1 and CD80(B7-1)/PD-L1 protein/protein interactions” (BRISTOL-MYERS SQUIBB COMPANY, priority 2013, dated 2017)
Where two headings read alike, the source gives them in different places. Starred links: 1 amine or outer side, 2 acyl side, 3 side chain; linkers in the order of their positions; H or OH if unused. Positions of bridges follow the written chain, without caps; N, C: chain ends. Non-standard residues stand in square brackets, D forms with d. Residues, ends and D or L forms follow the SMILES beside them. ξ: configuration not given here. X1 = C[C@@H]1C[C@H](C(=O)[*:2])N([*:1])C1; Phe(3-F) = N[C@@H](Cc1cccc(F)c1)C(=O)O; Bta = N[C@@H](Cc1csc2ccccc12)C(=O)O; Hyp = O=C(O)[C@@H]1C[C@@H](O)CN1; NMeF = CN[C@@H](Cc1ccccc1)C(=O)O; NMehSer = CN[C@@H](CCO)C(=O)O; Chg = N[C@H](C(=O)O)C1CCCCC1; NMeNle = CCCC[C@H](NC)C(=O)O; NMeS = CN[C@@H](CO)C(=O)O; NMeA = CN[C@@H](C)C(=O)O; Dab = NCC[C@H](N)C(=O)O; Dap = NC[C@H](N)C(=O)O; ξC = NC(CS)C(=O)O; Sar = CNCC(=O)O

Assays:
[1] = target: T1, LK35.2-hPD-L1 cells / PE-labeled PD-1-Ig (Homo sapiens, UniProt Q9NZQ7); assay: LK35.2-hPD-L1 cell binding high-content screening assay; assay type: cell-based; settings: cluster symbol, read-out: CBA IC50 cluster
T1 construct: expressed in transfected cells; host or cells: LK35.2 mouse B cell line
T1 sequence (Q9NZQ7 19-290): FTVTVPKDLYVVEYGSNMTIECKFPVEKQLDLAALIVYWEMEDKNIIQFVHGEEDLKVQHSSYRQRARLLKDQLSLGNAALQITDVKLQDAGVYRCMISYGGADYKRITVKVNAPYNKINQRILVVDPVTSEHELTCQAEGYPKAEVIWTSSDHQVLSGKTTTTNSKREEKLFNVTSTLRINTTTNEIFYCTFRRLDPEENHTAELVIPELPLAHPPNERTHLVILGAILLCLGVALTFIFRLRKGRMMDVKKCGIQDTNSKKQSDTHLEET
Outline: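 Fluorescent PD-1-Ig binding to PD-L1-expressing LK35.2 cells, imaged after washing. Conditions: 1 nM PE-PD-1-Ig, 37 °C, 1 h, RPMI with 10% fetal calf serum.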

Human PD-L1/PD-1 = target: T2, Human PD-L1/PD-1 (Homo sapiens, UniProt Q9NZQ7); assay: HTRF PD-1-Ig/PD-L1-His binding assay (human PD-L1)
T2 construct: made in house; host or cells: HEK293T
T2 sequence (Q9NZQ7 with tags, fused parts or gaps): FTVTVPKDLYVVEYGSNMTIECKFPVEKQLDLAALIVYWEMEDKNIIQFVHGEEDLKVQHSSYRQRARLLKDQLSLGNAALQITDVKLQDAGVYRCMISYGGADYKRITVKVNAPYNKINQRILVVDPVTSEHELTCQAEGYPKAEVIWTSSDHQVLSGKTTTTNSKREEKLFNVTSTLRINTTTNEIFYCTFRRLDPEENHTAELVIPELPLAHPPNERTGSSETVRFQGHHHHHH
Outline: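 The time-resolved fluorescence signal comes from Eu-cryptate anti-Ig (1 nM) and APC anti-His (20 nM) antibodies bound to a PD-1-Ig/PD-L1-His complex. Both partners lack transmembrane regions.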

[2] = cell line of CBA not given (LK35.2-hPD-L1 or 293T-hPD-L1)
[3] = cluster symbol, read-out: HTRF IC50 cluster
[4] = cell binding assay, cell line not given

| IC50 [1, 2] | IC50 (Human PD-L1/PD-1; [3]) | IC50 [1, 4] | IC50 (Human PD-L1/PD-1; value given instead of cluster, read-out: HTRF IC50 value) | SMILES |
| --- | --- | --- | --- | --- |
| 0.158 to 4.71 nM | 6.76 to 30.3 nM |  |  | CCCC[C@H]1C(=O)N(C)CC(=O)N[C@@H](CC(=O)O)C(=O)N[C@@H](C(C)C)C(=O)N(C)[C@@H](Cc2ccccc2)C(=O)N[C@@H](Cc2ccc(O)cc2)C(=O)N(C)CC(=O)N[C@@H](Cc2c[nH]c3ccccc23)C(=O)N[C@@H](Cc2ccc(O)cc2)C(=O)N[C@@H](CC(C)C)C(=O)N[C@H](C(=O)NCC(N)=O)CSCC(=O)N[C@@H](Cc2cccc(F)c2)C(=O)N(C)[C@@H](Cc2ccccc2)C(=O)N1C [Example 3125] ({CH2CO}-[Phe(3-F)][NMeF][NMeNle][Sar]DV[NMeF]Y[Sar]WYLCG-NH2; thioether N-13) |
| > 74.3 nM | > 30.5 nM |  |  | CCCC[C@@H]1NC(=O)CSC[C@@H](C(=O)NCC(N)=O)NC(=O)[C@H](CC(C)C)NC(=O)[C@H](Cc2ccc(O)cc2)NC(=O)[C@H](Cc2c[nH]c3ccccc23)NC(=O)CN(C)C(=O)[C@H](Cc2ccc(O)cc2)NC(=O)[C@H](Cc2ccccc2)N(C)C(=O)[C@H](C(C)C)NC(=O)[C@H](CC(=O)O)NC(=O)CN(C)C(=O)[C@H](CCCC)N(C)C(=O)[C@H](Cc2ccccc2)N(C)C1=O [Example 3171] (HELM PEPTIDE1{[O=C(C[*:3])[*:2]].[Nle].[meF].[CCCC[C@@H](C(=O)[*:2])N(C)[*:1]].[Sar].D.V.[meF].Y.[Sar].W.Y.L.C.G.[am]}$PEPTIDE1,PEPTIDE1,1:R3-14:R3$$$V2.0) |
| 4.78 to 72.9 nM | > 30.5 nM |  |  | CCCC[C@H]1C(=O)N2CCC[C@@H]2C(=O)N2C[C@H](O)C[C@H]2C(=O)N[C@@H](C(C)C)C(=O)N(C)[C@@H](Cc2ccccc2)C(=O)N[C@@H](Cc2ccc(O)cc2)C(=O)N(C)CC(=O)N[C@@H](Cc2c[nH]c3ccccc23)C(=O)N[C@@H](Cc2ccc(O)cc2)C(=O)N[C@@H](CC(C)C)C(=O)N[C@H](C(=O)NCC(N)=O)CSCC(=O)N[C@@H](Cc2ccccc2)C(=O)N(C)[C@@H](Cc2ccccc2)C(=O)N1C [Example 3174] (HELM PEPTIDE1{[O=C(C[*:3])[*:2]].F.[meF].[CCCC[C@@H](C(=O)[*:2])N(C)[*:1]].[dP].[Hyp].V.[meF].Y.[Sar].W.Y.L.C.G.[am]}$PEPTIDE1,PEPTIDE1,1:R3-14:R3$$$V2.0) |
|  | > 30.5 nM | > 74.3 nM |  | CCCC[C@H]1C(=O)N(C)[C@@H](CCCC)C(=O)N[C@@H]([C@@H](C)O)C(=O)N[C@H](C(=O)NCC(N)=O)CSCC(=O)N[C@@H](Cc2ccccc2)C(=O)N(C)[C@@H](C)C(=O)N[C@@H](CC(N)=O)C(=O)N2CCC[C@H]2C(=O)N[C@@H](Cc2cnc[nH]2)C(=O)N[C@@H](CC(C)C)C(=O)N(C)CC(=O)N[C@@H](Cc2c[nH]c3ccccc23)C(=O)N[C@@H](CO)C(=O)N[C@@H](Cc2c[nH]c3ccccc23)C(=O)N1C [Example 5021] ({CH2CO}-F[NMeA]NPHL[Sar]WSW[NMeNle][NMeNle]TCG-NH2; thioether N-14) |
|  | 0.385 to 6.74 nM | 0.158 to 4.71 nM |  | CCCC[C@H]1C(=O)N2C[C@H](C)C[C@@H]2C(=O)N[C@@H](CC(=O)O)C(=O)N[C@@H](C(C)C)C(=O)N(C)[C@@H](Cc2ccccc2)C(=O)N[C@@H](Cc2ccc(O)cc2)C(=O)N(C)CC(=O)N[C@@H](Cc2c[nH]c3ccccc23)C(=O)N[C@@H](Cc2ccc(O)cc2)C(=O)N[C@@H](CC(C)C)C(=O)N[C@H](C(=O)NCC(N)=O)CSCC(=O)N[C@@H](Cc2ccccc2)C(=O)N(C)[C@@H](Cc2ccccc2)C(=O)N1C [Example 3580] ({CH2CO}-F[NMeF][NMeNle][X1]DV[NMeF]Y[Sar]WYLCG-NH2; thioether N-13) |
|  | 0.385 to 6.74 nM | 4.78 to 72.9 nM |  | CCCC[C@H]1C(=O)N(C)[C@@H](CCCC)C(=O)N[C@@H](Cc2ccncc2)C(=O)N[C@H](C(=O)NCC(N)=O)CSCC(=O)N[C@@H](Cc2ccc(O)cc2)C(=O)N(C)[C@@H](C)C(=O)N[C@@H](CC(N)=O)C(=O)N2CCC[C@H]2C(=O)N[C@@H](Cc2cnc[nH]2)C(=O)N[C@@H](CC(C)C)C(=O)N2C[C@H](O)C[C@H]2C(=O)N[C@@H](Cc2c[nH]c3ccccc23)C(=O)N[C@@H](CO)C(=O)N[C@@H](Cc2c[nH]c3ccccc23)C(=O)N1C [Example 7031] |
| 4.78 to 72.9 nM | > 30.5 nM |  |  | CCCC[C@H]1C(=O)N(C)CC(=O)N[C@@H](CC(=O)O)C(=O)N[C@@H](C2CCCCC2)C(=O)N(C)[C@@H](Cc2ccccc2)C(=O)N[C@@H](Cc2ccc(O)cc2)C(=O)N(C)CC(=O)N[C@@H](Cc2c[nH]c3ccccc23)C(=O)N[C@@H](Cc2ccc(O)cc2)C(=O)N[C@@H](CC(C)C)C(=O)N[C@H](C(=O)NCC(N)=O)CSCC(=O)N[C@@H](Cc2ccccc2)C(=O)N(C)[C@@H](Cc2ccccc2)C(=O)N1C [Example 3158] ({CH2CO}-F[NMeF][NMeNle][Sar]D[Chg][NMeF]Y[Sar]WYLCG-NH2; thioether N-13) |

Further lines, the molecule ahead of its results:

| SMILES | IC50 [1, 2] | IC50 (Human PD-L1/PD-1; [3]) | IC50 [1, 4] | IC50 (Human PD-L1/PD-1; value given instead of cluster, read-out: HTRF IC50 value) |
| --- | --- | --- | --- | --- |
| CCCC[C@H]1C(=O)N2CCC[C@@H]2C(=O)N[C@@H](CCCNC(=N)N)C(=O)N[C@H](C(=O)NCC(N)=O)CSCC(=O)N[C@@H](Cc2ccccc2)C(=O)N(C)[C@@H](C)C(=O)N[C@@H](CC(N)=O)C(=O)N2CCC[C@H]2C(=O)N[C@@H](Cc2cnc[nH]2)C(=O)N[C@@H](CC(C)C)C(=O)N(C)CC(=O)N[C@@H](Cc2c[nH]c3ccccc23)C(=O)N[C@@H](CO)C(=O)N[C@@H](Cc2c[nH]c3ccccc23)C(=O)N1C [Example 5009] (HELM PEPTIDE1{[O=C(C[*:3])[*:2]].F.[meA].N.P.H.L.[Sar].W.S.W.[CCCC[C@@H](C(=O)[*:2])N(C)[*:1]].[dP].R.C.G.[am]}$PEPTIDE1,PEPTIDE1,1:R3-15:R3$$$V2.0) |  |  | > 74.3 nM | 30.5 nM |
| CCCC[C@H]1C(=O)N(C)[C@@H](CCOC)C(=O)N[C@@H](CCCNC(=N)N)C(=O)N[C@H](C(=O)NCC(N)=O)CSCC(=O)N[C@@H](Cc2ccc(O)cc2)C(=O)N(C)[C@@H](C)C(=O)N[C@@H](CC(=O)O)C(=O)N2CCC[C@H]2C(=O)N[C@@H](Cc2cnc[nH]2)C(=O)N[C@@H](CC(C)C)C(=O)N2CCC[C@@H]2C(=O)N[C@@H](Cc2c[nH]c3ccccc23)C(=O)N[C@@H](CO)C(=O)N[C@@H](Cc2c[nH]c3ccccc23)C(=O)N1C [Example 9005] ({CH2CO}-Y[NMeA]DPHL[dP]WSW[NMeNle][NMehSer](Me)RCG-NH2; thioether N-14) |  | 0.385 to 6.74 nM | 0.158 to 4.71 nM |  |
| CCCC[C@H]1C(=O)N(C)[C@@H](CCCC)C(=O)N[C@@H](CCN)C(=O)N[C@H](C(=O)NCC(N)=O)CSCC(=O)N[C@@H](Cc2ccc(O)cc2)C(=O)N(C)[C@@H](C)C(=O)N[C@@H](CC(N)=O)C(=O)N2CCC[C@H]2C(=O)N[C@@H](Cc2cnc[nH]2)C(=O)N[C@@H](CC(C)C)C(=O)N2C[C@H](O)C[C@H]2C(=O)N[C@@H](Cc2c[nH]c3ccccc23)C(=O)N[C@@H](CO)C(=O)N[C@@H](Cc2c[nH]c3ccccc23)C(=O)N1C [Example 1131] | 0.158 to 4.71 nM | 0.385 to 6.74 nM |  |  |
| CCCC[C@H]1C(=O)N(C)[C@@H](CCCC)C(=O)N[C@@H](CCCNC(=N)N)C(=O)NC(C(=O)NCC(N)=O)CSCC(=O)N[C@@H](Cc2ccc(O)cc2)C(=O)N(C)[C@@H](C)C(=O)N[C@@H](CC(N)=O)C(=O)N2CCC[C@H]2C(=O)N[C@@H](CC(N)=O)C(=O)N[C@@H](CC(C)C)C(=O)N2CCC[C@H]2C(=O)N[C@@H](Cc2c[nH]c3ccccc23)C(=O)N[C@@H](CO)C(=O)N[C@@H](Cc2csc3ccccc23)C(=O)N1C (stereo partly shown) [Example 9060] ({CH2CO}-Y[NMeA]NPNLPWS[Bta][NMeNle][NMeNle]R[ξC]G-NH2; thioether N-14) |  | 0.385 to 6.74 nM | 0.158 to 4.71 nM |  |
| CCCC[C@H]1C(=O)N(C)[C@@H](CCCC)C(=O)N[C@@H](CCCNC(=N)N)C(=O)N[C@H](C(=O)NCC(N)=O)CSCC(=O)N[C@@H](Cc2ccc(O)cc2)C(=O)N(C)[C@@H](C)C(=O)N[C@@H](CCN)C(=O)N2CCC[C@H]2C(=O)NCC(=O)N[C@@H](CCC(=O)O)C(=O)N2C[C@H](O)C[C@H]2C(=O)N[C@@H](Cc2c[nH]c3ccccc23)C(=O)N[C@@H](CO)C(=O)N[C@@H](Cc2c[nH]c3ccccc23)C(=O)N1C [Example 5129] ({CH2CO}-Y[NMeA][Dab]PGE[Hyp]WSW[NMeNle][NMeNle]RCG-NH2; thioether N-14) |  | 0.385 to 6.74 nM | 4.78 to 72.9 nM |  |
| CCCC[C@H]1C(=O)N(C)[C@@H](CCCC)C(=O)N[C@@H](CCCNC(=N)N)C(=O)NC(C(=O)NCC(N)=O)CSCC(=O)N[C@@H](Cc2ccc(O)cc2)C(=O)N(C)[C@@H](CO)C(=O)N[C@@H](CC(N)=O)C(=O)N2CCC[C@H]2C(=O)N[C@@H](Cc2cnc[nH]2)C(=O)N[C@@H](CC(C)C)C(=O)N2CCC[C@H]2C(=O)N[C@@H](Cc2c[nH]c3ccccc23)C(=O)N[C@@H](CO)C(=O)N[C@@H](Cc2csc3ccccc23)C(=O)N1C (stereo partly shown) [Example 9035] ({CH2CO}-Y[NMeS]NPHLPWS[Bta][NMeNle][NMeNle]R[ξC]G-NH2; thioether N-14) |  | 6.76 to 30.3 nM | 4.78 to 72.9 nM |  |
| CCCC[C@H]1C(=O)N(C)[C@@H](CCCC)C(=O)N[C@@H](CCCNC(=N)N)C(=O)N[C@H](C(=O)NCC(N)=O)CSCC(=O)N[C@@H](Cc2ccc(O)cc2)C(=O)N(C)[C@@H](C)C(=O)N[C@@H](CC(N)=O)C(=O)N2CCC[C@H]2C(=O)N[C@@H](CN)C(=O)N[C@@H](CCC(N)=O)C(=O)N2CCC[C@H]2C(=O)N[C@@H](Cc2c[nH]c3ccccc23)C(=O)N[C@@H](CO)C(=O)N[C@@H](Cc2c[nH]c3ccccc23)C(=O)N1C [Example 6021] ({CH2CO}-Y[NMeA]NP[Dap]QPWSW[NMeNle][NMeNle]RCG-NH2; thioether N-14) |  | 0.385 to 6.74 nM | 0.158 to 4.71 nM |  |
